According to patent US20200368260A1, “USE OF BENZOPYRAN COMPOUND IN PREPARATION OF PRODUCT FOR REGULATING LIPID METABOLISM AND COMPOSITION OF THE SAME” (priority 2019, published 2020):

Legend:
Format in all cases: cell-based, human
APGSL = assay: Q-PCR, mRNA expression in oleic acid induced HepG2 cells
Excerpt: (§1) The culture, model establishment and drug treatment manners of the cells were the same as those in 1.2.4. After the completion of the treatment, the cells were collected, total RNA was extracted, then cDNA was synthesized by reverse transcription, and finally, the change of the transcription level of autophagy-related genes of the HepG2 cell in a nonalcoholic fatty liver disease model under the actions of petunidin-3-O-β-D glucoside and malvidin-3-O-β-D glucoside was detected by the real-time fluorescent quantitative PCR method, where the following method can be adopted:
(§2) 1. After the completion of drug treatment, the cells were washed with PBS for 2 times, added with 1 mL Trizol per about 1×10^7 cells, then pipetted up and down with a 1 mL pipette gun (free of RNA enzymes) until the liquid was clear and had no cell aggregate, transferred into a […] RNA-enzyme-free EP tube, mixed well by inverting up and down for 10 times, and lysed for 5 minutes at room temperature.
(§3) 1. The first strand of cDNA was synthesized by using 800 ng of total RNA as a template and a total system of 20 μL. A nuclease-free PCR tube in the ice bath was added with the following reagents:
(§4) 5. A reverse transcription reaction was carried out on a PCR machine under the following conditions: incubation at 25° C. for 10 min, cDNA synthesis at 50° C. for 30 min, and reaction termination at 85° C. for 5 min. The resulting cDNA product was stored at −20° C.
(§5) 1. According to the gene sequence provided in the literature, the primers were synthesized by Sangon Biotech (Shanghai) Co., Ltd., and the primer sequences of β-actin, APG5L, Apg7, p62 , Bcl-1 and FASN were shown in the table below:
(§6) 2. The above reaction solution was placed into a real-time quantitative PCR instrument for amplification, and the PCR reaction conditions were as shown in the table below:
(§7) For the expression of the target gene, the difference was corrected with a reference gene β-actin by a Ct value comparison method, and the changing multiple was 2^−ΔΔCt. The calculation formula was: the changing multiple=2^−ΔΔCt, where ΔΔCt=(Ct of the target gene−Ct of the reference gene) the drug treatment group−(Ct of the target gene−Ct of the reference gene) control.

p62 = assay: as above; conditions: for mRNA level of p62: high dose group; for mRNA expression of p62: low and medium doses
Excerpt: as §1, §2, §3, §4, §5, §6, §7

Bcl-1 = assay: as above
Excerpt: as §1, §2, §3, §4, §5, §6, §7

Fas = assay: as above
Excerpt: as §1, §2, §3, §4, §5, §6, §7

APG7 = assay: as above; conditions: for mRNA level of Apg7: high dose group; for mRNA expression of Apg7: low and medium doses
Excerpt: as §1, §2, §3, §4, §5, §6, §7

high-fat HepG2 cells [1] = assay: Triglyceride (TG) content of the cells, TG kit; conditions: for level of TG in a high fat cell: FIGS. 4B, 5B; for level of TG, compared with control group and low dose group: medium and high doses
Experimental: (§8) 2. The culture, model establishment and experimental steps of the cells were operated according to the above steps. The anthocyanin compound mother liquor was diluted to 0, 0.1, 1, 10, 50, and 100 μM to treat the high-fat HepG2 cells, respectively.
(§9) 3. The culture solution was pipetted off, gently washed with PBS for 3 times, and added with trypsin to digest the cells for 1 min The cell suspension was pipetted into a 1.5 mL sterile EP tube, centrifuged at 1000 rpm for 10 minutes, the supernatant was discarded, the pellet was added with an appropriate amount of PBS, ultrasonically crushed under the condition of an ice-water bath, and the prepared homogenate was not centrifuged and was ready for determination.
The intracellular triglyceride content was determined according to the operating instructions of a triglyceride (TG) kit. The protein content in the cells was determined by a BCA protein concentration kit, and the triglyceride content in the cells was calibrated with the protein content.

high-fat HepG2 cells [2] = assay: Total cholesterol (TC) content in the cells, TC kit; conditions: for level of TC in a high fat cell: FIGS. 4A, 5A; for level of TC, compared with control group and low dose group: medium and high doses
Experimental: as §8, §9
The total cholesterol (TC) content in the cells was determined according to the operating instructions of a TC kit. The protein content in the cells was determined by a BCA protein concentration kit, and the total cholesterol content in the cells was calibrated with the protein content.

high-fat HepG2 cells [3] = assay: Cellular aspartate aminotransferase (AST) content, AST kit; conditions: for level of AST in a high fat cell: FIGS. 4D, 5D; for level of AST, compared with control group and low dose group: medium and high doses
Experimental: as §8, §9
The intracellular aspartate aminotransferase (AST) content was determined according to the operating instructions of an AST kit. 1.2.4 Effect of petunidin-3-O-β-D glucoside and malvidin-3-O-β-D glucose on autophagy of HepG2 cells

SMILES: COc1cc(-c2[o+]c3cc(O)cc(O)c3cc2O[C@@H]2O[C@H](CO)[C@@H](O)[C@H](O)[C@H]2O)cc(OC)c1O [malvidin-3-O-β-D glucoside]
- mRNA level of APGSL (APGSL): up-regulate
- mRNA level of p62 (p62): up-regulate
- mRNA expression of p62 (p62): reduced
- mRNA expression level of Bcl-1 (Bcl-1): significantly decrease
- mRNA expression level of Fas (Fas): significantly decrease
- mRNA level of Apg7 (APG7): up-regulate
- mRNA expression of Apg7 (APG7): reduced
- level of TG in a high fat cell (high-fat HepG2 cells [1]): reduce
- level of TG, compared with control group and low dose group (high-fat HepG2 cells [1]): very significant reduction
- level of TC in a high fat cell (high-fat HepG2 cells [2]): reduce
- level of TC, compared with control group and low dose group (high-fat HepG2 cells [2]): very significant reduction
- level of AST in a high fat cell (high-fat HepG2 cells [3]): reduce
- level of AST, compared with control group and low dose group (high-fat HepG2 cells [3]): very significant reduction

SMILES: COc1cc(-c2[o+]c3cc(O)cc(O)c3cc2O[C@@H]2O[C@H](CO)[C@@H](O)[C@H](O)[C@H]2O)cc(O)c1O [petunidin-3-O-β-D glucoside]
- mRNA level of APGSL (APGSL): up-regulate
- mRNA level of p62 (p62): up-regulate
- mRNA expression of p62 (p62): reduced
- mRNA expression level of Bcl-1 (Bcl-1): significantly decrease
- mRNA expression level of Fas (Fas): significantly decrease
- mRNA level of Apg7 (APG7): up-regulate
- mRNA expression of Apg7 (APG7): reduced
- level of TG in a high fat cell (high-fat HepG2 cells [1]): reduce
- level of TG, compared with control group and low dose group (high-fat HepG2 cells [1]): very significant reduction
- level of TC in a high fat cell (high-fat HepG2 cells [2]): reduce
- level of TC, compared with control group and low dose group (high-fat HepG2 cells [2]): very significant reduction
- level of AST in a high fat cell (high-fat HepG2 cells [3]): reduce
- level of AST, compared with control group and low dose group (high-fat HepG2 cells [3]): very significant reduction
